Laboratory results: ChEMBL document CHEMBL5244241, “Pyrimidine: A promising scaffold for optimization to develop the inhibitors of ABC transporters” (Eur J Med Chem, 2020)

Tests used:
[1] = biological target: T1, ATP-dependent translocase ABCB1 (Homo sapiens, UniProt P08183); assay: Inhibition of ABCB1 (unknown origin)
[2] = Oral bioavailability in BALB/c mouse at 50 mg/kg, […] measured upto 24 hrs relative to control; format: ADME, organism-based; details: in vivo
[3] = biological target: T1, ATP-dependent translocase ABCB1; assay: Inhibition of P-gp (unknown origin) mediated ATP hydrolysis
K562/A02 = assay: Reversal of doxorubicin-induced multidrug resistance in human K562/A02 cells assessed as reversal fold of doxorubicin cytotoxicity by MTT assay; format: functional

T1 sequence (P08183 whole entry): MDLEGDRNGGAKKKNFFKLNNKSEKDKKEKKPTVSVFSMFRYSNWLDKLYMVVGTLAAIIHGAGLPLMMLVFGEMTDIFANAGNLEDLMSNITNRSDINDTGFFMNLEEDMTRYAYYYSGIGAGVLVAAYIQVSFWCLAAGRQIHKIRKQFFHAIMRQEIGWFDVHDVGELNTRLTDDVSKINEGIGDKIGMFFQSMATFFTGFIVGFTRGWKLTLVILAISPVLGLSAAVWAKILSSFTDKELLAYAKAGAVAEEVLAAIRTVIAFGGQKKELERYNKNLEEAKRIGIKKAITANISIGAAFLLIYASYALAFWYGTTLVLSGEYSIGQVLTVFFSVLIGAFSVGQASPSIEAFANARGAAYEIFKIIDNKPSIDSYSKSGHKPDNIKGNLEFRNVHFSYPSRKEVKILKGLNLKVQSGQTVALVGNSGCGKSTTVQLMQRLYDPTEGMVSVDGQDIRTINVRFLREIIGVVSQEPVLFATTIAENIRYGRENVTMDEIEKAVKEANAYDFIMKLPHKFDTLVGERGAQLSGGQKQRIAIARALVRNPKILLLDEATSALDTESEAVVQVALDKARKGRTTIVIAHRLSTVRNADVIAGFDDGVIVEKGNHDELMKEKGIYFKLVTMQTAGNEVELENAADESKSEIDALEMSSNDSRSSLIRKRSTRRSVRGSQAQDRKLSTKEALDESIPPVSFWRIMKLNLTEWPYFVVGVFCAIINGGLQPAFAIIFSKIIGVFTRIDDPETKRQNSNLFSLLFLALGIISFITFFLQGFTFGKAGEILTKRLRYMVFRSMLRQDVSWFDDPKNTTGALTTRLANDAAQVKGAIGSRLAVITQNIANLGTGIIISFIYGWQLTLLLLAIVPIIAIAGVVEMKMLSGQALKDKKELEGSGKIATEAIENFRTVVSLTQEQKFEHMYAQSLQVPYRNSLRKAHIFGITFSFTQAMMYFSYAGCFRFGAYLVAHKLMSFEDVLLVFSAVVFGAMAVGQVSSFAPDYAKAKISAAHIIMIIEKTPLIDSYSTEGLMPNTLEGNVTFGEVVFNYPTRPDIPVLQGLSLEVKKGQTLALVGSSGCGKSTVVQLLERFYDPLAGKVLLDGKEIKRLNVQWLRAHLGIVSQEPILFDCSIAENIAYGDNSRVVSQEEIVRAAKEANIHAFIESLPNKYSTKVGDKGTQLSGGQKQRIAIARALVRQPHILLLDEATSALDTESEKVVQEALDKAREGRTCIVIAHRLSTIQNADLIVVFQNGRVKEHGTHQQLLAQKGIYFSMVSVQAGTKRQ

SMILES	Ratio (K562/A02)	further results
O=[N+]([O-])c1cc(Nc2nc(-c3ccccc3)nc3ccccc23)ccc1O		IC50 [1]: 80 nM
NC(=O)c1c2n(c3c(N4CCN(CCc5ccc(F)c(F)c5)CC4)ncnc13)CCCC2		bioavailability [2]: > 50%
Nc1ncnc2c1ncn2[C@@H]1O[C@H](COC(=O)c2ccc(S(=O)(=O)F)cc2)[C@@H](O)[C@H]1O		IC50 [3]: 210 µM
CCCCCC(CC(C)=O)n1cnc2c(N)ncnc21 (stereo unspecified)	1.09	
CCCCCCCCCCCCCCCCC(=O)CC(CCCCCCCC)n1cnc2c(N)ncnc21 (stereo unspecified)	1.09	
CCCCC(CC(C)=O)n1cnc2c(N)ncnc21 (stereo unspecified)	1.09	
